row,Compound,melting point
1,COc1ccc(CN)c(F)c1F,34 °C
2,N#CC(Br)c1ccccc1 (configuration not stated),29 °C
3,CC(C)Nc1ccc(C#N)cc1[N+](=O)[O-],113 to 115 °C
4,O=C(OCc1ccccc1)C(=O)OCc1ccccc1,80 to 82 °C
5,CC(C)[C@@H](N)C(=O)O,302 to 303 °C
6,CC1CC(C)CC(O)C1 (configuration not stated),11.6 °C
7,CC(=NO)c1ccc(Cl)c(Cl)c1,108 to 111 °C
8,Cc1cc(C)c(N)cc1C,68 °C
9,[O-][P+](c1ccccc1)(c1ccccc1)C1c2ccccc2Oc2ccccc21,161 °C
10,O=C1OC(CO)C(O)C(O)C1O (configuration not stated),151 to 155 °C
11,Cc1nn(-c2ccccc2)nc1C(=O)NNC(=N)C(Cl)(Cl)Cl,197 to 198 °C
12,O=C1COc2ccc(S(=O)(=O)Cl)cc2N1,178 °C
13,CCOC(=O)c1c(-c2ccc(Br)cc2)csc1N,120 to 122 °C
14,COC(=O)C1=C(C(=O)OC)[C@@H]2C=C[C@H]1c1cc3ccccc3c(-c3ccccc3)c12,219 °C
15,CCCCC(=O)OC(=O)CCCC,-56.1 °C
16,O=Cc1ccc(Cl)c(F)c1,47 °C
17,CC(=O)N1CCC[C@H]1C(=O)O,118 °C
18,O=C(Nc1cccc(C(F)(F)F)c1)Nc1nnc(-c2ccc(Cl)cc2)o1,236 to 238 °C
19,O=C(O)Cc1ccc(CC(=O)O)cc1,254 °C
20,NC(=NO)C(N)=NO,200 to 204 °C
21,Nc1ncnc2c1ncn2C1(CO)OC(CO)C(O)C1O (configuration not stated),212 °C
22,C/C(Cc1ccccc1)=N\NC(N)=O,189 °C

row,Compound,melting point
1,CC(C)(C)c1ccc(-c2nnc(S)n2Cc2ccco2)cc1,156 to 158 °C
2,Nc1ncnc2c1ncn2C1OC(CI)C(O)C1O (configuration not stated),178 to 187 °C
3,O=C(CBr)c1cc(C(=O)CBr)cc(C(=O)CBr)c1,111 °C
4,Cn1nc(C(=O)Cl)cc1-c1ccccc1,80 to 82 °C
5,CN(C)CCN(C)C,-55 °C
6,Cc1ccc(Cl)c(C)c1,-32.5 °C
7,CC(C)(C)OC(=O)N1CSC[C@H]1C(=O)O,132 to 136 °C
8,Fc1ccc(Br)cc1Br,69 °C
9,O=[N+]([O-])/C=C/c1ccccc1,58 °C
10,O=C(Nc1cc2c(cc1/C=C/c1ccccc1)CC(c1ccccc1)N2C(=O)c1ccccc1)c1ccccc1 (configuration not stated),250 °C
11,COC(=O)CCCCC(=O)O,9 °C
12,CSCCC(NS(=O)(=O)c1ccc(C)cc1)C(=O)O (racemic),105 to 108 °C
13,COC(=O)C1=C(C)NC(=O)NC1c1ccc(Cl)cc1 (configuration not stated),172 °C
14,COc1cc(CC(=O)O)cc(OC)c1,103 °C
15,CC(C)(C#N)N=NC(C)(C)C#N,102 °C
16,Cc1cc2c(C)ccc(C)c2cc1C,64 °C
17,CC(C)=CCCC(C)C1CCC2C3CC=C4CC(O)CCC4(C)C3CCC12C (configuration not stated),122 °C
18,FC(F)(F)c1nnc(S)n1/N=C/c1ccccc1,233 °C
19,COc1ccc2c(c1)C(=O)C2,55 °C
20,N#CCS(=O)(=O)c1ccccc1,112 °C
21,NC(=S)Nc1cccc([N+](=O)[O-])c1,189 to 190 °C
22,c1ccc(C2=NCCN=C2c2ccccc2)cc1,160 to 163 °C

row,Compound,melting point
1,CCCC(C)OC(C)=O (configuration not stated),-100 °C
2,COc1ccc2cc(C(=O)c3cc4ccc(OC)cc4oc3=O)c(=O)oc2c1,271 °C
3,N[C@@H]1CC[C@H](C(=O)O)C1,192 °C
4,COc1ccc(CCNc2ccccc2N)cc1OC,78 to 80 °C
5,Clc1ccc(Cl)c(CBr)c1,41 °C
6,CCCCCCCCCCCC(CCCCCCCC)c1ccccc1 (configuration not stated),17.9 °C
7,COc1cccc(C2NC(=O)NC(C)=C2C(=O)OC(C)C)c1OC (configuration not stated),167 °C
8,CCCCCOC(=O)CCC(=O)OCCCCC,-10.8 °C
9,O=C1NC(=O)C2(CCCCC2)N1,218 to 220 °C
10,CC(=O)C1=CCCCC1,73 °C
11,C=CCN(CC=C)C(=O)COC(=O)c1ccccc1,42.5 °C
12,O=C(Cl)c1ccc2nccnc2c1,119 °C
13,C=CCNC(=O)NCC=C,91.5 °C
14,Oc1ccc2c(c1)C13CCCCC1C(C2)N(CC1CC1)CC3 (configuration not stated),188 °C
15,CC(O)Cn1cnc2c1c(=O)n(C)c(=O)n2C (configuration not stated),136 °C
16,Brc1n[nH]c(Br)n1,201 °C
17,O=S(=O)(NC(=S)Nc1ccccc1)c1ccccc1,144 to 145 °C
18,C=C(C)C(=O)O,16 °C
19,Nc1nnc(-c2ccc([N+](=O)[O-])o2)s1,280 °C
20,Cc1ccc(C(c2ccc(C)o2)c2cc(Br)cc(C)c2O)o1,198 to 199 °C
21,FC(F)OC(F)F,-123 °C
22,ClC=CBr,-86.7 °C

# More lines, now with the values ahead:
row,melting point,Compound
1,-68 °C,FC(F)(F)C(F)(Cl)C(F)(Cl)C(F)(F)F (configuration not stated)
2,135 to 136 °C,Cc1ccc(C)n1-c1ccsc1C(=O)NN
3,-16 °C,Cc1ccc(C)nc1
4,155 to 159 °C,Cc1c([N+](=O)[O-])cc(C(=O)O)cc1[N+](=O)[O-]
5,179 to 180 °C,O=Cc1c[nH]c2cccc(Br)c12
6,109 to 110 °C,CC(=O)c1cc(F)cc(F)c1O
7,195 °C,CNC1=CC(=O)C2(C)CCC1C2(C)C (configuration not stated)
8,114 to 116 °C,OCC(O)CC(F)(F)C(F)(F)C(F)(F)C(F)(F)C(F)(F)C(F)(F)C(F)(F)C(F)(F)F (configuration not stated)
9,275 °C,O=C(O)C(O)n1ccnc1 (configuration not stated)
10,169 °C,O=[N+]([O-])c1ccccc1OCCOc1ccccc1[N+](=O)[O-]
11,-79 °C,SCCCS
12,11 °C,C[Si](C)(C)C#N
13,204 to 206 °C,COc1ccccc1C1CCN(c2ccc(C=CC(=O)O)cc2[N+](=O)[O-])CC1
14,-29 °C,Fc1c(F)c(F)c(I)c(F)c1F
15,188 °C,CC(C)C1=C(O)C(=O)C2=C(CC(O)C3C(C)(C)CCCC23C)C1=O (configuration not stated)
16,142 °C,CC1(C)OC(=O)C(=Cc2ccccc2F)C(=O)O1

row,melting point,Compound
1,60 °C,CC(=O)Oc1cc(-c2ccccc2)cc2ccccc12
2,93.5 °C,COc1c(C)c2c(c(O)c1CC=C(C)CCC(=O)OCCN1CCOCC1)C(=O)OC2
3,92 to 94 °C,O=C(Cl)C1=Cc2cc(Cl)ccc2OC1
4,216 °C,CC(=O)Oc1c(I)cc(I)cc1C(=O)Nc1ccc(Cl)cc1
5,34 °C,CCOC(=O)c1ccc(OC(C)=O)cc1
6,232 °C,O=C1c2ccccc2C(=O)c2c1cccc2[N+](=O)[O-]
7,40.5 °C,CC1=CCC(C(=O)O)C1(C)C (configuration not stated)
8,46 to 48 °C,COC(=O)c1ccc(OC)c(OC)c1Cl
9,37.5 °C,CCC(N)(CO)CO
10,117 °C,CC12CCC(C(=O)/C(=N\Nc3ccccc3)C1=O)C2(C)C (configuration not stated)
11,24 °C,O=C(S)c1ccccc1
12,-73 °C,CCN(CC)C(=O)CC(C)=O
13,20.5 °C,CC=CC(=O)c1ccccc1
14,35 °C,Cc1nn(C)c(Cl)c1S(=O)(=O)Cl
15,165 °C,NS(=O)(=O)c1ccc(S(=O)(=O)CCO)c(F)c1
